# Measured values taken from EP1561465A2, “Methods of use of fluoroquinolone compounds against bacteria” (LG Life Sciences, Ltd., priority 1999, dated 2001).
# Like-named read-outs stand apart in the source and are kept apart here.
# Columns and labels:
# Assay type in all cases: cell-based
# Salmonella spp. = test: MIC by agar dilution (NCCLS M7-A4), 288 enteropathogenic isolates, eight quinolones; conditions: for MIC: ciprofloxacin MIC ≥[…], read-out: MIC
# Hafnia alvei = test: as above; conditions: Hafnia alvei (n = 32)
# Yersinia enterocolitica = test: as above; conditions: Yersinia enterocolitica (n = 22)
# Campylobacter jejuni = test: MIC by agar dilution (NCCLS M7-A4), 5% sheep blood, microaerophilic 48 h; conditions: Campylobacter jejuni (n=91)
# [1] = tested on: Streptococcus pneumoniae and Haemophilus influenzae; test: MIC by broth microdilution (NCCLS), all isolates pooled
smiles,measurement,setting,value
"Cc1c(F)c(N2CCNC(C)C2)cc2c1c(=O)c(C(=O)O)cn2C1CC1 (stereo not shown) [Grepafloxacin, grepafloxacin]",MIC,Salmonella spp.; S. hadar (n = 2),1 µg/mL
same,MIC,Salmonella spp.; S. newport (n = 1),1 µg/mL
same,MIC,Salmonella spp.; S. virchow (n = 2),0.25 µg/mL
same,% Susceptible,Salmonella spp.; Salmonella spp. (n = 106),99%
same,MIC50,Salmonella spp.; Salmonella spp. (n = 106),0.06 µg/mL
same,MIC90,Salmonella spp.; Salmonella spp. (n = 106),0.25 µg/mL
same,MIC Range,Salmonella spp.; Salmonella spp. (n = 106),0.03 to 2 µg/mL
same,MIC,"Salmonella spp.; Salmonella, S. tshiongwe (n = 1)",2 µg/mL
same,% Susceptible,Hafnia alvei,100%
same,MIC50,Hafnia alvei,0.03 µg/mL
same,MIC90,Hafnia alvei,0.06 µg/mL
same,MIC Range,Hafnia alvei,≤0.015 to 0.06 µg/mL
same,% Susceptible,Yersinia enterocolitica,100%
same,MIC50,Yersinia enterocolitica,0.03 µg/mL
same,MIC90,Yersinia enterocolitica,0.03 µg/mL
same,MIC Range,Yersinia enterocolitica,≤0.015 to 0.25 µg/mL
same,% Susceptible,Campylobacter jejuni,31.86%
same,MIC50,Campylobacter jejuni,32 µg/mL
same,MIC90,Campylobacter jejuni,64 µg/mL
same,MIC Range,Campylobacter jejuni,0.03 to 128 µg/mL
same,MIC90,"[1]; all (380) isolates tested (235 S. pneumoniae, 145 H. influenzae)",0.12 µg/mL
same,MIC90,[1]; all isolates tested (602),0.12 µg/mL
